US8337835B2, “Use of an endogenous ligand for peroxisome proliferator activated receptor alpha to treat liver disorders” (priority 2009, dated 2012)

Tests used:
[1] = system: PPARα target gene acyl CoA oxidase; assay: Establishing conditions (dose, rate) for portal vein infusion; assay type: in vivo, mouse
Protocol: We therefore extrapolated the doses in mice taking into account the direct intraportal route, and tested doses ranging from 0.1 mg/day to 10 mg/day based on a 25 g mouse. […] Optimal dosing frequency was determined based on kinetic data obtained by injection of ^14C-labeled 16:0/18:1-GPC (American Radiochemicals, St. Louis) into the portal vein of […] mice as shown in FIG. 12. Following a single injection into the portal vein (1.9 μCi/mouse), total counts from both cytoplasmic and nuclear fractions were obtained (FIG. 12A). Using standard pharmacokinetic equations (Hardman et al., 2001), a dosing interval of 8.7 hours was calculated, indicating an optimal dosing frequency of three times a day.

ΔDBD-PPARα = molecular target: T1, ΔDBD-PPARα (Mus musculus, UniProt P23204, C119A/C122A); assay: In vivo competitive inhibition with PPARα having a defective DNA binding domain; conditions: 50 μg/g intraperitoneal; chow fed WT mice on PPARα null background with AdFLAG-ΔDBD PPARα; 0-60 min
T1 construct: expressed in transfected cells; host or cells: liver of chow-fed WT mice on a PPARα null background, infected with AdFLAG-ΔDBD PPARα adenovirus
T1 sequence (P23204 1-468 C119A/C122A): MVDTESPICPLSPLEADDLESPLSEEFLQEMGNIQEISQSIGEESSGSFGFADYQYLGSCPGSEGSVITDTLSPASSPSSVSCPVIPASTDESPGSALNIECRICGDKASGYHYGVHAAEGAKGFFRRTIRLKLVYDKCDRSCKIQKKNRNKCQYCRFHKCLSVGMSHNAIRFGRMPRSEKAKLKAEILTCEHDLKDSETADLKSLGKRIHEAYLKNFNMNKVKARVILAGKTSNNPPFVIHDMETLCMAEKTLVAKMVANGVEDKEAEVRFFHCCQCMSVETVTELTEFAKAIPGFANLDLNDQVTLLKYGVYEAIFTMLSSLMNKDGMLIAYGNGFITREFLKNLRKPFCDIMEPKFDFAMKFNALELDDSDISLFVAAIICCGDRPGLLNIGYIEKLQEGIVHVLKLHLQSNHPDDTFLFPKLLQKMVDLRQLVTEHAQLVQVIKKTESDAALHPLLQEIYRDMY
Source text: Adenovirus encoding both FLAG®-tagged wild type mouse PPARα and a GFP marker, and an adenovirus encoding GFP alone were gifts from T. C. Leone and D. P. Kelly. The AdPPARα virus is known to result in expression of a protein that transactivates PPARα target genes (Bernal-Mizrachi et al., 2003; Tordjman et al., 2002). The DNA binding domain (DBD) mutant of PPARα was generated by mutating the two highly conserved cysteine residues (Shi et al., 2002) to alanine (C119A, C122A) using site-directed mutagenesis (QuikChange® kit, Stratagene). The DBD mutant was subcloned into the pCMV-TAG1 vector (Stratagene) to acquire a FLAG® tag, then shuttled into pAdTrack-CMV vector encoding a GFP marker and recombined with Ad-Easy1 vector. The pAdTrack-CMV and pAdEasy-1 vectors were gifts from the laboratory of B. Vogelstein. […]
To address the concern that lipid loss could represent Wy14,643-accelerated metabolism as opposed to displacement of the ligand, 1-palmitoyl-2-oleoyl-sn-glycerol-3-phosphocholine (16:0/18:1-GPC) from its binding site on PPARα, an in vivo competitive inhibition experiment using a PPARα molecule with a defective DNA binding domain (see FIG. 5A) was employed. […] Quantification of the relative abundance of the m/z 766 ion in response to Wy14,643 administration in WT mice on a PPARα null background injected with AdFLAG-^ΔDBD PPARα adenovirus is shown in FIG. 5M. […]

| SMILES | lowest dose causing increased expression of the PPARα target gene acyl CoA oxidase ([1]; intraportal, rapid infusion (<1 min), mice) [mg/kg] | solubility of infusate ([1]; larger doses and slower infusion rates) | lethality ([1]; larger doses and slower infusion rates, portal vein) | displacement of m/z 766 (16:0/18:1-GPC) from ΔDBD-PPARα (ΔDBD-PPARα) |
| --- | --- | --- | --- | --- |
| CCCCCCCC/C=C\CCCCCCCC(=O)O[C@H](COC(=O)CCCCCCCCCCCCCCC)COP(=O)([O-])OCC[N+](C)(C)C [16:0/18:1-GPC, 1-palmitoyl-2-oleoyl-sn-glycerol-3-phosphocholine] | 10 | poor solubility | death due to portal vein thrombosis |  |
| Cc1cccc(Nc2cc(Cl)nc(SCC(=O)O)n2)c1C [Wy14,643, 4-Chloro-6-(2,3-xylidino)-2-pyrimidinylthioacetic acid] |  |  |  | competed away from ΔDBD-PPARα within minutes |
